Some results are limits rather than exact numbers.

One test has as its system E. coli. Briefly: E. coli kill with photosensitizers with and without copper under broad-spectrum Reptile Light. It is filed as cell-based, Escherichia coli. To be noted: for effectiveness as photosensitizer: as shown in Example 2, under the test conditions; for log reduction: Reptile Light 8,520 Lux (26 W/m2). The procedure:
In this example we compare different photosensitizers (50 μM in water) in combination with and without copper sulfate. An agricultural adjuvant sticker spreader, Silwet® L-77 was also included at a 0.0125% concentration. The conditions experimental were the same as Example 1: E. coli as the test organism, using copper sulfate at 10 ppm, and a light exposure time of 30 minutes. However, in this test series we used a light source that reproduced the spectrum of sunlight, including UV. It is used to in terrariums for housing reptiles, some of which require a UV component in their light. It is referred to here as the Reptile Light (Zoo Med 2019).
In this example we also used the Reptile Light. In these tests the light intensity was 8,520 Lux, or 26 W/m2 (for comparison, this could be full daylight on a cloudy day, or a common light level in a greenhouse). […] Silwet (see Helena 2019) is an agricultural nonionic organosilicone surfactant adjuvant wetting and spreading agent commonly used with pesticides, also commonly known as a sticker spreader).
In this example we tested a commercial algicide product, Cutrine®, which contains copper ethanolamine (from the product label: Copper Ethanolamine Complex, Mixed (Mono CAS #14215-52-2 and Tri CAS #82027-59-6) 27.9%; OTHER INGREDIENTS 72.1% TOTAL 100.0% Metallic copper equivalent, 9%; Contains 0.909 lbs. of elemental copper per gallon) (EPA Reg. No. 8959-10). Copper ethanolamine is effective in keeping the copper salt in solution at neutral pH. The tests were done as above, under the reptile light for 30 minutes.
The above tests using CuSO4 at 10 ppm is equivalent to 3.98 ppm copper. We initially tested Cutrine® at a low and a high concentration, where the low concentration is adjusted to have approximately 3.98 ppm copper as before, and the high concentration is 39.8 ppm copper (same copper concentration as 100 ppm CuSO4). We tested them with and without 18 ppm riboflavin. Again, tests were run in triplicate.

Test [1] has as its system Escherichia coli (E. coli) bacteria (ATCC 25922). Briefly: Photodynamic treatment of E. coli under blue LED light; colonies plated and reduction vs untreated control. The settings on record: for % reduction: converted from log kill. It is filed as cell-based. The procedure:
Tests were carried out with Escherichia coli (E. coli) bacteria (ATCC 25922) in which the organisms were exposed to varying test conditions. The light source for photoactivation was a blue LED light (HIGROW 2019) that was placed 7 cm from the container containing the E. coli. The photoactivator was riboflavin (Aldrich R7649, lot VVXBB4048V, purity 98.6%) at a concentration of 18 ppm. Copper sulfate was used at a concentration of 10 ppm (aqueous solution). The tests included a wetting agent Silwet® L-77 at a concentration of 0.0125%. Silwet® L-77 is a product of Helena Agri-Enterprises, LLC of Collierville, TN, and is a nonionic organosilicone surfactant co-polymer that has enhanced wetting and spreading characteristics when used in aqueous sprays. Silwet® L-77 has a CAS Registry Number of 27306-78-1. Each test was carried out for the prescribed time, which varied from 5 minutes to 30 minutes. At the end of the exposure time the bacteria were diluted and plated so that the colonies could be enumerated and the corresponding reduction determined by comparison with the untreated control.
We also carried out tests to evaluate the effect of light intensity. These tests used 10 ppm copper sulfate and 18 ppm riboflavin (aqueous solution) in a 15-minute exposure under the blue light, using neutral density filters to decrease the light intensity. The full light intensity at the 450 nm to 460 nm range was 353 W/m^2.

For test [2], the system named is Xanthomonas hortorum pv. pelargonii. Briefly: Reduction of Xanthomonas hortorum pv. pelargonii leaf spots on geranium plants in greenhouse. It is filed as in vivo. The settings on record: single spray 24 hours before inoculation, leaf spots counted two weeks after inoculation.
[3] abbreviates: photosensitizer alone, 50 μM in water, Reptile Light, 30 minutes.
Setting [4] is: photosensitizer alone, 50 μM in water, Reptile Light, 30 minutes, median (EY, RMP: average).
Setting [5] is: 10 ppm alone, blue light, 30 minutes.
Setting [6] is: 10 ppm + Silwet (0.0125%), 30 minutes.
[7] abbreviates: 18 ppm alone, blue light, 30 minutes.

`O=C1OC2(c3ccccc31)c1cc(I)c(O)c(I)c1Oc1c2cc(I)c(O)c1I` [ER, erythrosine]: the effectiveness as photosensitizer result with E. coli was “effective”. Besides, the “% kill” value with E. coli (setting [3]) was 25.88%. Also, in the test with E. coli (setting [4]), the Log kill was found to be 0.13 Log.
Taken in the same sequence, the figures for `O=C1OC2(c3cc(I)c(O)c(I)c3Oc3c2cc(I)c(O)c3I)c2c(Cl)c(Cl)c(Cl)c(Cl)c21` [RB, Rose Bengal] were “effective”, 30.81% and 0.16 Log.
For the molecule `O=S(=O)([O-])[O-].[Cu+2]` [copper sulfate], the log kill worked out at 0.954 log in test [1] (setting [5]) and 0.226 log in test [1] (10 ppm, in the dark, 30 minutes). Further, the “% reduction” value in test [1] (setting [5]) was determined as 88.88%. Also, the log reduction worked out at 0.13 log with E. coli (setting [6]) and 0.13 log with E. coli (40 ppm, 30 minutes). Moreover, the “% kill” value in the test on E. coli (10 ppm alone, reptile lamp, 30 minutes) turned out to be 26.04%. In addition, in the test on E. coli (10 ppm alone, reptile lamp, 30 minutes, median value), the Log kill stood at 0.131 Log.
Regarding `Cc1cc2nc3c(=O)[nH]c(=O)nc-3n(C[C@H](O)[C@H](O)[C@H](O)CO)c2cc1C` [riboflavin], the “effectiveness against leaf spots” value in test [2] is on record as “only partially effective”. Besides, the log kill in test [1] (setting [7]) is 0.83 log; in test [1] (18 ppm, in the dark), “did not produce any measurable kill”; with E. coli (riboflavin alone, reptile light, 30 minutes, from previous test data), less than 1 log. Further, the “% reduction” value in test [1] (setting [7]) was determined as 85.208%. The log reduction turned out to be 0.15 log in the test with E. coli (setting [6]) and 1.6 log with E. coli (50 ppm, 1 hour). For the same molecule, the Log kill in the test with E. coli (18 ppm alone, reptile lamp, 30 minutes) was found to be 0.115 Log; with E. coli (setting [4]) it was 0.115 Log. Also, in the test on E. coli, the effectiveness as photosensitizer entry is on record as “most effective”. Moreover, the “% kill” value in the test on E. coli (setting [3]) came out at 23.26%.
Regarding Eosin Y [EY], the effectiveness as photosensitizer entry with E. coli is listed as “effective”. In addition, the “% kill” value in the test with E. coli (setting [3]) is 6.46%. In addition, in the test with E. coli (setting [4]), the Log kill came to 0.87 Log.
riboflavin monophosphate [RMP]: in the test on E. coli (setting [3]), the “% kill” value is reported as 3.17%. The Log kill in the test with E. coli (setting [4]) worked out at 0.042 Log.

These data come from US12108756B2, “Photodynamic method of inhibiting growth of a microbial plant pathogen” (priority 2019, dated 2024).
